Measured values reported in publication PMC2884290 (Neuropsychopharmacology : official publication of the …, 2009).
Read-outs that look alike come from different tables or passages of the source.

Tests used:
[1] = molecular target: T1, mGluR5 (Rattus norvegicus, UniProt P31424); format: cell-based
[2] = molecular target: T1, mGluR5; assay: PI hydrolysis in rat hippocampal slices

T1 sequence (P31424 21-1203): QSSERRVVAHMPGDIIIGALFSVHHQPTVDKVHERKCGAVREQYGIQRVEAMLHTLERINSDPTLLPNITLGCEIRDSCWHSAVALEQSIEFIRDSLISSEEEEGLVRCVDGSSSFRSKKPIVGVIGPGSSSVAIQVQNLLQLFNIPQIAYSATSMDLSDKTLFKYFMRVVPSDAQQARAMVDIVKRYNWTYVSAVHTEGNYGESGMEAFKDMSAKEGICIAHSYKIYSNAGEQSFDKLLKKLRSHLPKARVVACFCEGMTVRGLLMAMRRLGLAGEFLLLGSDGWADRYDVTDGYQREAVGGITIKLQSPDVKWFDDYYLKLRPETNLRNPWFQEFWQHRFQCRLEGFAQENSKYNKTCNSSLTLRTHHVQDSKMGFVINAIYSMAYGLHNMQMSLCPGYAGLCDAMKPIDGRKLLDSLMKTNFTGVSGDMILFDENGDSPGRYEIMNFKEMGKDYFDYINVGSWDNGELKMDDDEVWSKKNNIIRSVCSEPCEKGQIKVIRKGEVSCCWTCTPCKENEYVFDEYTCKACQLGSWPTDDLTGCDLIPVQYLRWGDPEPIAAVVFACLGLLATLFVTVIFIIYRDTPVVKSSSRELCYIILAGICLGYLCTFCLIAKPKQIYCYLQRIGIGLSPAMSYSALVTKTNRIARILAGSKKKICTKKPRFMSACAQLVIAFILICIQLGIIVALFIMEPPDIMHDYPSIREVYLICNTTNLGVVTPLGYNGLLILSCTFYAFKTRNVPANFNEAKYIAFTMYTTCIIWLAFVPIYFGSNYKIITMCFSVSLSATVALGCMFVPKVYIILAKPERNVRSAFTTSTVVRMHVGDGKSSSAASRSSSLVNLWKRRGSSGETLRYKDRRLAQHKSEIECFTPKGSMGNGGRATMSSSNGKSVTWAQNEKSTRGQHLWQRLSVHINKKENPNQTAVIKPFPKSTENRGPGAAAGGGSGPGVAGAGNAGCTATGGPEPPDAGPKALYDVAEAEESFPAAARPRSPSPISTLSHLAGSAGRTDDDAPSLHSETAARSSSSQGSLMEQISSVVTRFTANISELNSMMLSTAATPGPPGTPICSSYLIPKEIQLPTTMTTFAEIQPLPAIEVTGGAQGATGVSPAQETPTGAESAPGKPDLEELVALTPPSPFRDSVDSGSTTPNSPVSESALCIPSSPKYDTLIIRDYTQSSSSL

| SMILES | EC50 [1] [µM] | EC50 [2] [µM] |
| --- | --- | --- |
| O=C(c1ccc(F)cc1)N1CCC[C@H](c2nc(-c3ccc(F)cc3)no2)C1 [ADX47273] | 0.108 ± 0.041 | – |
| NC(C(=O)O)c1cc(O)cc(O)c1 (centres unmarked) [DHPG] | – | 8 ± 1.6 |
